From patent US12097252B2, “Formulation of a peptide vaccine” (priority 2016, dated 2024)
Marks after values point to notes of the source that are not given here.

Legend:
[1] = In-use chemical stability of vaccine emulsions by UPLC/MS after extraction of peptides; assay type: physicochemical; conditions: for Related substances (≥0.05%) [Area %]: peak in reconstituted PRAME-DP-5P; for Peptides and related substances (≥0.05%) [Area %]: peak in reconstituted P53-DP-5P
Description: For samples showing complete dissolution, an emulsion stability of >2 hours, and a chemical stability of the Drug Product solutions (without additional dilution) of >2 hours, the in-use chemical stability of the vaccine emulsions with Montanide ISA 51 VG was monitored with UPLC/MS. For analysis of chemical stability of the reconstituted and emulsified Drug Products, samples were analyzed at various time points, at least up to 2 hours after dissolution. UPLC/MS analysis was performed according to the method describe above for chemical stability of the Drug Product solution, using an extra sample preparation step for extraction of the peptides from the vaccine emulsion. For sample preparation of emulsified products, the following steps were applied: • Take 300 μL Reconstitution Solution and add this to a 15 mL Greiner tube • Add 100 μL heptane • Add 200 μL of the Drug Product emulsion. Pipet the solution up and down three times. • Vortex the mixture for 30 seconds • Centrifuge the mixture for 5 minutes at 4400 rpm to obtain a two-phase system • With a 20-200 μL pipette, take a 100 μL sample from the bottom layer and transfer to a total recovery UPLC vial. • Analyze with UPLC/UV/MS according to the method described for chemical stability of the Drug Product solutions. Results Solvent Screening for Reconstitution and Emulsification
Analysis of chemical stability was performed by UPLC-MS as described in Example 1, at the section describing methods for analysis of in-use chemical stability of HPV-DP-6P and HPV-DP-7P vaccine emulsions including extraction of the peptides from the vaccine emulsion.
Purity of the Drug Product at different time points was calculated as follows: Purity (%)=100%−Sum of impurities≥0.05% area

[2] = test system: RAHYNIVTF-specific CD8^+ T cells; experiment: Strength of T cell response in blood, D^b-[…] tetramer flow cytometry; assay type: in vivo, C57BL/6 mice; conditions: for % Tm+ of CD8: emulsified 1:1 with Montanide ISA VG51, s.c.; for % CD62L+ KLRG1+ (% of TM+ CD8 T cells) / % CD62L− KLRG1+ (% of TM+ CD8 T cells): Montanide 1:1
Description: On day 9 after vaccination, blood was drawn from the tail vein of all mice. Blood samples were transferred to a 96-wells culture plate and centrifuged for 5 minutes at 1600 rpm. Erythrocytes were lysed by suspending blood cell pellets in Lysis buffer until orange coloration was observed. Subsequently, cells were washed in FACS buffer and stained with the fluorescent antibodies, the D^b-[…]-APC tetramer and 7-AAD mentioned in the Materials section above. After 30 minutes of incubation on ice, cells were washed and analyzed on a BD LSRII flow cytometer in the Leiden University Medical Center (Dept. of Rheumatology).
A study by Van Duikeren et al. (J Immunol, 2012; 189(7): 3397-403) aimed to identify parameters that correlated with the induction of an effective antitumor response. By identifying such biomarkers, different vaccine compositions can be tested in non-tumor bearing mice with prognostic value in tumor models. The authors found a correlation between the expression of KLRG1 and absence of CD62L expression on the one hand and effective antitumor immune responses on the other hand. We determined the percentages of KLRG1- and CD62L-expressing D^b-[…]^+ CD8^+ T cells in the blood of vaccinated mice on day 9 after vaccination using flow cytometry. No difference in percentage of […]-specific KLRG1^+ CD62L^− CD8^+ T cells is observed between groups 3 and 4. Not enough […]-specific CD8+ T cells were detected to reliably study the expression of KLRG1 and CD62L in the groups of mice vaccinated with vehicle only (Group 1 and 2). See Table 10 for the average percentages and standard deviations per group.

[3] = test system: TC-1 tumor cells, expressing the oncogenic E6 and E7 proteins of HPV16; experiment: Therapeutic vaccination of mice carrying TC-1 tumors; assay type: in vivo, C57BL/6 mice
Description: The following groups of mice were included in the study: • Group 1: (n=5) 40% v/v DMSO/WFI emulsified 1:1 with Montanide ISA VG51. • Group 2: (n=5) Reconstitution composition (750 μL 0.1M Citric acid in water, 62.5 μL Propylene Glycol, 125 μL Ethanol and 62.5 μL Cremophor EL per mL) emulsified 1:1 with Montanide ISA VG51. • Group 3: (n=10) SLP […] and 20 μg CpG ODN1826/mouse dissolved in 40% v/v DMSO/WFI, emulsified 1:1 with Montanide ISA VG51. • Group 4: (n=10) SLP […] (SEQ ID NO: 6) and 20 μg CpG ODN1826/mouse dissolved in Reconstitution composition (750 μL 0.1M Citric acid in water, 62.5 μL Propylene Glycol, 125 μL Ethanol and 62.5 μL Cremophor EL per mL), emulsified 1:1 with Montanide ISA VG51.
For mice in Group 1, a solution was prepared by admixing and subsequently swirling 400 μL DMSO and 600 μL WFI. The solution was taken up in a 2 mL Luer-Lock syringe (Syringe A). In another 2 mL Luer-Lock syringe (Syringe B) 1 mL of Montanide ISA VG51 was taken up, after which both syringes were connected to a T-connector. An emulsion was generated by mixing the contents back and forth extensively. After mixing, the syringes were disconnected and a 25 G needle was placed on the syringe containing the emulsion. Per mouse, 100 μL was injected in the left flank subcutaneously.
The vaccine prepared for Group 2 was prepared in an identical manner, only differing by the use of reconstitution composition (750 μL 0.1M citric acid in water and 250 μL PG/EtOH/Cremophor EL 1:2:1, i.e. 0.075M citric acid, 6.25% v/v propylene glycol CAS no. 57-55-6, 12.5% v/v ethanol and 6.25% v/v polyoxyethyleneglyceroltriricinoleate 35 CAS no. 61791-12-6 in water) instead of DMSO and WFI. […]
TC-1 tumor cells, expressing the oncogenic E6 and E7 proteins of HPV16 were cultured in complete IMDM culture medium, supplemented with 400 μg/ml geneticin. […] The tumor size of all mice was monitored at least twice a week using a caliper up to 75 days after tumor challenge.

[4] = Group 3 average: SLP SEQ ID NO: 6 + CpG ODN1826 in 40% v/v DMSO/WFI, blood day 9 after vaccination
[5] = Group 4 average: SLP SEQ ID NO: 6 + CpG ODN1826 in Reconstitution composition, blood day 9 after vaccination

Substance: SEQ ID NO 155: PRAME-derived peptide, component of PRAME DP-5P (WTVWSGNRASLYSFPEPEAAQPMTKKRKVDGLST)
- Related substances (≥0.05%) [Area %] ([1]; in-use storage t = 0 h): 23.35 Area %
- Related substances (≥0.05%) [Area %] ([1]; in-use storage t = 1 h): 22.85 Area %
- Related substances (≥0.05%) [Area %] ([1]; in-use storage t = 2 h): 22.65 Area %
- Related substances (≥0.05%) [Area %] ([1]; in-use storage t = 3 h): 22.62 Area %

Substance: SEQ ID NO 194: P53-derived synthetic long peptide, component of P53 DP-5P (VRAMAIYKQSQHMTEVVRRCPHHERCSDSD)
- Peptides and related substances (≥0.05%) [Area %] ([1]; in-use storage t = 0 h): 13.00 Area %
- Peptides and related substances (≥0.05%) [Area %] ([1]; in-use storage t = 1 h): 12.02 Area %
- Peptides and related substances (≥0.05%) [Area %] ([1]; in-use storage t = 2 h): 11.87 Area %
- Peptides and related substances (≥0.05%) [Area %] ([1]; in-use storage t = 3 h): 11.63 Area %

Substance: GQAEPDRAHYNIVTFCCKCDSTLRLCVQSTHVDIR [SLP 6]
- % Tm+ of CD8 ([2]; Group 3 average: SLP SEQ ID NO: 6 + 20 μg CpG ODN1826/mouse in 40% v/v DMSO/WFI, blood day 9 after vaccination): 1.4%
- % CD62L+ KLRG1+ (% of TM+ CD8 T cells) [2, 4]: 4.0%
- % CD62L− KLRG1+ (% of TM+ CD8 T cells) [2, 4]: 51.9%
- % Tm+ of CD8 ([2]; Group 4 average: SLP SEQ ID NO: 6 + 20 μg CpG ODN1826/mouse in Reconstitution composition (0.1M citric acid/PG/EtOH/Cremophor EL), blood day 9, p < 0.05 vs group 3): 4.8* %
- % CD62L+ KLRG1+ (% of TM+ CD8 T cells) [2, 5]: 4.0%
- % CD62L− KLRG1+ (% of TM+ CD8 T cells) [2, 5]: 52.2%
- percentage of induced D^b-RAYNIVTF (tetramer) positive CD8^+ T cells ([2]; group 4 (Rec. composition+SLP) vs group 3 (DMSO+SLP), p=0.022): enhanced tetramer-positive CD8^+ T cell response
- outgrowth of TC-1 tumors ([3]; SLP 6 and CpG1826 in DMSO/WFI or Reconstitution composition, Montanide emulsion, s.c. day 8, monitored up to 75 days): Tumor regression is observed in all mice
- overall tumor outgrowth, comparison of formulations ([3]; SLP 6 dissolved in DMSO/WFI vs Reconstitution composition): No differences were observed in overall tumor outgrowth
- Kaplan-Meier survival ([3]; SLP-vaccinated groups: DMSO/WFI vs Reconstitution composition): no differences between the vaccinated groups
